# Experimental data: patent US9840583B2, “Fluorescent polymers and applications thereof” (Board of Regents, The University of Texas System, priority 2013, dated 2017)
# Assay: Photostability under continuous UV excitation
# Format: physicochemical
# Details: continuous UV excitation for 3 h
# Procedure: The photostability of ABPLP micelles was also investigated and compared to the organic fluorescent dye rhodamine-B. The fluorescence intensity of the ABPLP micelle solution decreased by only 1 percent of the initial intensity after continuous UV excitation for 3 h, indicating excellent photostability. In contrast, rhodamine-B lost almost 10 percent of initial fluorescence intensity within the same experimental period.
structure (smiles),measurement,value
CCN(CC)c1ccc2c(-c3ccccc3C(=O)O)c3ccc(=[N+](CC)CC)cc-3oc2c1.[Cl-] [rhodamine-B],Loss of initial fluorescence intensity,~10%
